Legend:
P. aeruginosa = test: Cell killing with compounds and PME at fixed concentrations, with and without white light; format: cell-based; conditions: 20 μM compound and 0.1 μg/mL PME
Experimental: FIG. 26 is an example of the treatment of P. aeruginosa with compound 1 and PME at fixed concentrations.
P. aeruginosa cells were also treated with white light upon being incubated with compound 1 for different durations of time. In a 12×75 mm borosilicate glass culture tube, 1 mL of cell suspension was added. PME was added to the cells, and the samples were mixed using a vortex mixer. The resulting samples were incubated for 1.5 hours at 37° C. on a rotary shaking incubator at 100 rpm. Compound 1 was then added, and the samples were incubated for 30 minutes at 37° C. on a rotary shaking incubator at 100 rpm. The samples were then irradiated with white light using a Lumacare™ LC-122 for 2 minutes (irradiation λ1) and incubated overnight at 37° C. The samples were irradiated again with white light using a Lumacare™ LC-122 for 2 minutes (irradiation λ2). Ten-fold dilutions were made of each sample, and 10 μL of each dilution was drip-streaked onto an agar plate. The samples were incubated overnight at 37° C., and colony counts were performed to calculate CFU/mL.
FIG. 55 is an illustrative example of the treatment of P. aeruginosa with compound 1, PME, co-treatment with compound 1 and PME, and co-treatment with compound 1, PME, and light (λ1 and λ2) at fixed concentrations.

[1] = tested on: Klebsiella pneumoniae (CRE, ATCC BAA-1705); test: Time-dependent colony counts of CRE with compounds and PME; format: cell-based; conditions: PME 0.2 μg/mL, compound 20 μM; FIGS. 48, 49
Experimental: The MICs of PME and compounds 8-11 were determined against Klebsiella pneumoniae (CRE, ATCC BAA-1705). […] […] At specific time points, the samples were taken and diluted ten-fold in media. Ten microliters of each dilution was then drip-streaked onto an agar plate and incubated overnight at 37° C. Colony counts were then performed and the CFU/mL were calculated.

[2] = tested on: A. baumannii (ATCC 15151); test: MIC against A. baumannii; format: cell-based; conditions: Acinetobacter baumannii, ATCC15151
Experimental: TABLE 28 details the individual MIC values of compounds 1, 7, 8, 9, 10, 11, PMB, PME, and light against A. baumannii.
(§1) The MICs of PME and compounds 8-11 were determined against A. baumannii (ATCC 15151). […] After incubating the cells with PME, a compound (5 μM) was added, and the samples were further incubated at 37° C. At specific time points, samples were taken and diluted ten-fold in media. Ten microliters of each dilution was then drip-streaked onto an agar plate and incubated overnight at 37° C. Colony counts were then performed, and the CFU/mL were calculated.

[3] = tested on: A. baumannii (ATCC 15151); test: Time course of colony counts with compounds and PME or PMB; format: cell-based; conditions: 0.2 μg/mL of PME, compound 5 μM; FIGS. 50, 52
Experimental: as §1

VRE = test: Resensitization to antibiotics (log reduction, TABLE 29); format: cell-based, Enterococcus faecalis
Experimental: (§2) In a 96-well microtiter plate, two-fold dilutions were made of each drug (starting with 100 μM) in 100 μL of a cell suspension in TSB. The resulting samples were incubated overnight at 37° C. on a rotary shaking incubator at 100 rpm. The samples were then visually inspected for turbidity. A 20% well volume of MTT reagent (5 mg/mL) was subsequently added, and the samples were incubated for about 20 minutes.

A. baumannii = test: as above; format: cell-based; conditions: compound 5 μM; PME (0.2 μg/mL)
CRE = test: as above; format: cell-based; conditions: compound 20 μM; PME (0.2 μg/mL)
Experimental: as §2

[4] = tested on: MRSA isolates (S. aureus ATCC 33591, BAA-44, BAA-1707, BAA-1717, BAA-1720, BAA-1747, BAA-1754, BAA-1761, BAA-1763, BAA-1764, BAA-1766); test: Combination effects of compounds 7-11 and antibiotics on MRSA isolates (turbidity); format: cell-based
From the text: Inhibition resulting from co-treatment of a broth suspension with a compound of the invention and an antibiotic was compared to broth suspensions subjected to each individual treatment. A visual observation of inhibition with the unaided eye upon co-treatment of the broth suspensions, based on turbidity, was considered synergistic.
Exceptions to reading complete inhibition of growth included Gram-positive cocci. For Gram-positive cocci, trailing growth was observed. For these species, the MICs were read at the first spot where trailing was observed, and tiny buttons of growth were ignored. […]
Two-fold dilutions of the antibiotics were prepared in a liquid growth medium dispensed in test tubes. […] The antibiotic-containing tubes were inoculated with a standard bacterial suspension of 5×10^5 CFU/mL. Following an overnight incubation (16-20 hrs) at 35±2° C. under ambient air, the tubes were examined for visible bacterial growth based on turbidity. The lowest concentration of antibiotic that prevented growth was determined to be the MIC. An incubation time of 24 hrs was used to determine the MICs of oxacillin and vancomycin.

Clc1ccc(Oc2c(-c3ccc(Cl)cc3)[nH]c3ccccc23)cc1 [Compound 10]
Co-treatment with PME: log reduction in the CFU/mL compared to PME alone (P. aeruginosa): 2-log reduction
Co-treatment with PME: log reduction in the CFU/mL compared to PME alone (P. aeruginosa; listed as compound 10): ~2 log reduction
CRE colony populations on simultaneous treatment with PME [1]: reduced the CRE colony populations to sterility
MIC [2]: > 100 µM
A. baumannii colony populations on treatment with compound and PME [3]: reduced to sterility
Log Reduction (VRE; compound 2 μM, Tetracycline (1 μg/mL)): 3-4
Log Reduction (VRE; compound […], Vancomycin (3.5 μg/mL)): 4
Log Reduction (A. baumannii): 8
Log Reduction (CRE): 6
combination effect with Gentamycin ([4]; MRSA ATCC 33591): No Synergy
combination effect with Norfloxacin ([4]; MRSA ATCC 33591): No Synergy
combination effect with Oxacillin ([4]; MRSA ATCC 33591): No Synergy
combination effect with Tetracycline ([4]; MRSA ATCC 33591): No Synergy
combination effect with Vancomycin ([4]; MRSA ATCC 33591): Susceptible
combination effect with Norfloxacin ([4]; MRSA ATCC BAA-44): No Synergy
combination effect with Oxacillin ([4]; MRSA ATCC BAA-44): No Synergy
combination effect with Tetracycline ([4]; MRSA ATCC BAA-44): Susceptible
combination effect with Vancomycin ([4]; MRSA ATCC BAA-44): Susceptible
combination effect with Gentamycin ([4]; MRSA ATCC BAA-1707): Susceptible
combination effect with Norfloxacin ([4]; MRSA ATCC BAA-1707): Susceptible
combination effect with Oxacillin ([4]; MRSA ATCC BAA-1707): Susceptible
combination effect with Tetracycline ([4]; MRSA ATCC BAA-1707): Synergy
combination effect with Vancomycin ([4]; MRSA ATCC BAA-1707): Susceptible
combination effect with Gentamycin ([4]; MRSA ATCC BAA-1717): Susceptible
combination effect with Norfloxacin ([4]; MRSA ATCC BAA-1717): Susceptible
combination effect with Oxacillin ([4]; MRSA ATCC BAA-1717): Synergy
combination effect with Tetracycline ([4]; MRSA ATCC BAA-1717): Susceptible
combination effect with Vancomycin ([4]; MRSA ATCC BAA-1717): Susceptible
combination effect with Gentamycin ([4]; MRSA ATCC BAA-1720): Susceptible
combination effect with Norfloxacin ([4]; MRSA ATCC BAA-1720): No Synergy
combination effect with Oxacillin ([4]; MRSA ATCC BAA-1720): No Synergy
combination effect with Tetracycline ([4]; MRSA ATCC BAA-1720): Susceptible
combination effect with Vancomycin ([4]; MRSA ATCC BAA-1720): Susceptible
combination effect with Gentamycin ([4]; MRSA ATCC BAA-1747): Susceptible
combination effect with Norfloxacin ([4]; MRSA ATCC BAA-1747): Susceptible
combination effect with Oxacillin ([4]; MRSA ATCC BAA-1747): Susceptible
combination effect with Tetracycline ([4]; MRSA ATCC BAA-1747): Susceptible
combination effect with Vancomycin ([4]; MRSA ATCC BAA-1747): Susceptible
combination effect with Gentamycin ([4]; MRSA ATCC BAA-1754): Susceptible
combination effect with Norfloxacin ([4]; MRSA ATCC BAA-1754): Susceptible
combination effect with Oxacillin ([4]; MRSA ATCC BAA-1754): No Synergy
combination effect with Tetracycline ([4]; MRSA ATCC BAA-1754): Susceptible
combination effect with Vancomycin ([4]; MRSA ATCC BAA-1754): Susceptible
combination effect with Gentamycin ([4]; MRSA ATCC BAA-1761): Susceptible
combination effect with Norfloxacin ([4]; MRSA ATCC BAA-1761): No Synergy
combination effect with Oxacillin ([4]; MRSA ATCC BAA-1761): Susceptible
combination effect with Tetracycline ([4]; MRSA ATCC BAA-1761): Susceptible
combination effect with Vancomycin ([4]; MRSA ATCC BAA-1761): Susceptible
combination effect with Gentamycin ([4]; MRSA ATCC BAA-1763): Susceptible
combination effect with Norfloxacin ([4]; MRSA ATCC BAA-1763): No Synergy
combination effect with Oxacillin ([4]; MRSA ATCC BAA-1763): No Synergy
combination effect with Tetracycline ([4]; MRSA ATCC BAA-1763): Susceptible
combination effect with Vancomycin ([4]; MRSA ATCC BAA-1763): Susceptible
combination effect with Gentamycin ([4]; MRSA ATCC BAA-1764): Susceptible
combination effect with Norfloxacin ([4]; MRSA ATCC BAA-1764): Susceptible
combination effect with Oxacillin ([4]; MRSA ATCC BAA-1764): No Synergy
combination effect with Tetracycline ([4]; MRSA ATCC BAA-1764): Susceptible
combination effect with Vancomycin ([4]; MRSA ATCC BAA-1764): Susceptible
combination effect with Gentamycin ([4]; MRSA ATCC BAA-1766): Susceptible
combination effect with Norfloxacin ([4]; MRSA ATCC BAA-1766): Susceptible
combination effect with Oxacillin ([4]; MRSA ATCC BAA-1766): No Synergy
combination effect with Tetracycline ([4]; MRSA ATCC BAA-1766): Susceptible
combination effect with Vancomycin ([4]; MRSA ATCC BAA-1766): Susceptible
